Test results taken from US12060385B2, “Compounds for RNA capping and uses thereof” (GUANGZHOU HENOVCOM BIOSCIENCE CO., LTD., priority 2022, dated 2024).

System: mRNA
Assay: Capping efficiency of mRNA with different cap analogs by LC-MS
Assay type: biochemical
Conditions: LC-MS after RNase H cleavage
Method: In a PCR machine, the annealing was performed using the following gradients: • 95° C. for 5 min; 65° C. for 2 min; 55° C. for 2 min; 40° C. for 2 min; 22° C. for 2 min • 5) Pre-treatment of magnetic beads were bound with probes.
100 μL of magnetic beads were placed on a magnetic rack and the preservation solution was removed. 100 μL of 1*BW solution was added, mixed well, and placed on the magnetic rack, and the supernatant was then removed. The washing step was repeated three times. 100 μL of wash A buffer was added, mixed well, and placed on the magnetic rack, and the supernatant was then removed. The washing step was repeated three times. 100 μL of wash B buffer was added, mixed well, and placed on the magnetic rack, and the supernatant was then removed. The washing step was repeated three times. After 120 μL of sample was added, the sample and the magnetic beads solution were incubated for 30 min at room temperature, and they were gently mixed well while incubation. • 6) mRNA was spliced to obtain 5′ end mRNA single stranded sequence and binding with the probe.
20 μL of RNase H (5 U/mL) was added, incubated for 3 hours at 37° C., mixed once every half an hour. 100 μL of 1*BW solution was added, mixed well, and placed on the magnetic rack, and then the supernatant was removed. The washing step was repeated three times. Subsequently, 100 μL of deionized aqueous solution was added, mixed well, and placed on the magnetic rack, and the supernatant was then removed. The washing step was repeated three times. 100 μL of 75% methanol at 80° C. was added, and the mixture was incubated at 80° C. on a heater plate for 3 min, and placed on the magnetic rack, and the supernatant was then pipetted. The sample was dried using an evaporative centrifuge at room temperature for 45 min to 10 μL, and then resuspended in 50 μL of 100 μM EDTA solution in 1% MeOH for LC-MS analysis.
The capping efficiencies of mRNA with different cap analogs were determined by LC-MS, and some compounds of the results were shown in Table 4.

For `CO[C@@H]1[C@H](OP(=O)([O-])OC[C@H]2O[C@@H](n3cnc4c(=O)[nH]c(N)nc43)[C@H](O)[C@@H]2O)[C@@H](COP(=O)(O)OP(=O)(O)OP(=O)(O)OC[C@H]2OC(n3c[n+](C)c4c(=O)[nH]c(N)nc43)[C@H](O)[C@@H]2CC(=O)N(C)C)O[C@H]1n1cnc2c(N)ncnc21` (stereo partly shown) [Compound 4], the Capping efficiency was “A (100% > A ≥ 95%)”.
`CO[C@@H]1[C@H](OP(=O)([O-])OC[C@H]2O[C@@H](n3cnc4c(=O)[nH]c(N)nc43)[C@H](O)[C@@H]2O)[C@@H](COP(=O)(O)OP(=O)(O)OP(=O)(O)OC[C@H]2O[C@@H](n3c[n+](C)c4c(=O)[nH]c(N)nc43)[C@H](O)[C@@H]2CNC(C)=O)O[C@H]1n1cnc2c(N)ncnc21` [Compound 6] was tested, and the Capping efficiency was “A (100% > A ≥ 95%)”.

Target: T7 RNA Polymerase (Escherichia phage T7, UniProt P00573)
Sequence (P00573 whole entry): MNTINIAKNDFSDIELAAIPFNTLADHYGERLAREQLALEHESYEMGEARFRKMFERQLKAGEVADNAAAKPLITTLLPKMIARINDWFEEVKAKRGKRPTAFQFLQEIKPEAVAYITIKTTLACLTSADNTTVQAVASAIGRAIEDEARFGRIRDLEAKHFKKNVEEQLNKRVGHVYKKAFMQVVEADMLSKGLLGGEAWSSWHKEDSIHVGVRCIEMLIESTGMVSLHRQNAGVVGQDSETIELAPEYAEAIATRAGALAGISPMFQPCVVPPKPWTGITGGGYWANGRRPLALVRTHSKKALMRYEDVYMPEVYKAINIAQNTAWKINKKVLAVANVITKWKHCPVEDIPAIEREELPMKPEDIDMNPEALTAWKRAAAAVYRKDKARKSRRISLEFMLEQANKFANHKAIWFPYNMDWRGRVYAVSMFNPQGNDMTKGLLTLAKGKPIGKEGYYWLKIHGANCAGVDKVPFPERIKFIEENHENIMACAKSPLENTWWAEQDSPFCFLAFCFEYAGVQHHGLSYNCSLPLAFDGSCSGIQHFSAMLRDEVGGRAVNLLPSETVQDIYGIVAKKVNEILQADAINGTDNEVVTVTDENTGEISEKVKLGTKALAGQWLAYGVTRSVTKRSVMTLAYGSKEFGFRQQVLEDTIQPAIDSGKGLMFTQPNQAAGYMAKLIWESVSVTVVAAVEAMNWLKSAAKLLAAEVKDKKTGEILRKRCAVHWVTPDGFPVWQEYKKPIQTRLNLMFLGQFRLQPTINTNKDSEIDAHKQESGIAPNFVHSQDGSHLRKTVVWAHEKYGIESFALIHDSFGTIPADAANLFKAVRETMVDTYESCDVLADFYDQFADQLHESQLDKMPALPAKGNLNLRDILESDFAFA
Assay: not given
Assay type: biochemical
Conditions: 20 μL transcription system, Cap1 Analog 4 mM, 37° C. 2 to 3 hours
Method: • 1) A plasmid was linearized and the DNA template was purified. • 2) mRNA was synthesized in vitro with 51 types of capping structures of the present disclosure, or without any cap analogues. CleanCap®AG (3′OMe) (Trilink, N-7413) was applied as positive control group, uncapped mRNA was negative control group, and DNAase/RNase-Free water was a blank control group.
The system was incubated for 2 to 3 hours at 37° C. and digested by TURBO DNase for 15 min LiCl was used to precipitate mRNA for at least 30 min, or overnight, mRNA precipitates were then washed with 75% ethanol. After ethanol was quickly volatilized, mRNA was re-solubilized with RNase-Free water. • 3) The transcribed products were purified and the transcription yields were calculated.

First: CO[C@@H]1[C@H](OP(=O)([O-])OC[C@H]2O[C@@H](n3cnc4c(=O)[nH]c(N)nc43)[C@H](O)[C@@H]2O)[C@@H](COP(=O)(O)OP(=O)(O)OP(=O)(O)OC[C@H]2OC(n3c[n+](C)c4c(=O)[nH]c(N)nc43)[C@H](O)[C@@H]2CC(=O)N(C)C)O[C@H]1n1cnc2c(N)ncnc21 (stereo partly shown) [Compound 4]
Second: CO[C@@H]1[C@H](OP(=O)([O-])OC[C@H]2O[C@@H](n3cnc4c(=O)[nH]c(N)nc43)[C@H](O)[C@@H]2O)[C@@H](COP(=O)(O)OP(=O)(O)OP(=O)(O)OC[C@H]2O[C@@H](n3c[n+](C)c4c(=O)[nH]c(N)nc43)[C@H](O)[C@@H]2CNC(C)=O)O[C@H]1n1cnc2c(N)ncnc21 [Compound 6]
The “Final product mass obtained from the 20 μL of mRNA transcription system” value (“Final product mass obtained” below) of the first is lower: 78 µg for the first, 103 µg for the second.

First: CCCCC(=O)NC[C@H]1[C@@H](O)[C@H](n2c[n+](C)c3c(=O)[nH]c(N)nc32)O[C@@H]1COP(=O)(O)OP(=O)(O)OP(=O)(O)OC[C@H]1O[C@@H](n2cnc3c(N)ncnc32)[C@H](OC)[C@@H]1OP(=O)(O)OC[C@H]1O[C@@H](n2cnc3c(=O)[nH]c(N)nc32)[C@H](O)[C@@H]1O [Compound 305]
Second: COC(=O)NC[C@H]1[C@@H](O)[C@H](n2c[n+](C)c3c(=O)[nH]c(N)nc32)O[C@@H]1COP(=O)(O)OP(=O)(O)OP(=O)(O)OC[C@H]1O[C@@H](n2cnc3c(N)ncnc32)[C@H](OC)[C@@H]1OP(=O)(O)OC[C@H]1O[C@@H](n2cnc3c(=O)[nH]c(N)nc32)[C@H](O)[C@@H]1O [Compound 323]
The “Final product mass obtained” value of the first is lower: 92 µg for the first, 114 µg for the second.

Going from `CO[C@@H]1[C@H](OP(=O)([O-])OC[C@H]2O[C@@H](n3cnc4c(=O)[nH]c(N)nc43)[C@H](O)[C@@H]2O)[C@@H](COP(=O)(O)OP(=O)(O)OP(=O)(O)OC[C@H]2O[C@@H](n3c[n+](C)c4c(=O)[nH]c(N)nc43)[C@H](O)[C@@H]2CNC(=O)c2ccccc2)O[C@H]1n1cnc2c(N)ncnc21` [Compound 309] to `CO[C@@H]1[C@H](OP(=O)([O-])OC[C@H]2O[C@@H](n3cnc4c(=O)[nH]c(N)nc43)[C@H](O)[C@@H]2O)[C@@H](COP(=O)(O)OP(=O)(O)OP(=O)(O)OC[C@H]2O[C@@H](n3c[n+](C)c4c(=O)[nH]c(N)nc43)[C@H](O)[C@@H]2CNS(C)(=O)=O)O[C@H]1n1cnc2c(N)ncnc21` [Compound 311], the “Final product mass obtained” value falls from 112 µg to 88 µg.

First: CO[C@@H]1[C@H](OP(=O)(O)OC[C@H]2O[C@@H](n3cnc4c(=O)[nH]c(N)nc43)[C@H](O)[C@@H]2O)[C@@H](COP(=O)(O)OP(=O)(O)OP(=O)(O)OC[C@H]2O[C@@H](n3c[n+](C)c4c(=O)[nH]c(N)nc43)[C@H](O)[C@@H]2CCNC(C)=O)O[C@H]1n1cnc2c(N)ncnc21 [Compound 319]
Second: CNC(=O)CC[C@H]1[C@@H](O)[C@H](n2c[n+](C)c3c(=O)[nH]c(N)nc32)O[C@@H]1COP(=O)(O)OP(=O)(O)OP(=O)(O)OC[C@H]1O[C@@H](n2cnc3c(N)ncnc32)[C@H](OC)[C@@H]1OP(=O)(O)OC[C@H]1O[C@@H](n2cnc3c(=O)[nH]c(N)nc32)[C@H](O)[C@@H]1O [Compound 415]
The “Final product mass obtained” value of the first is lower: 102 µg for the first, 108 µg for the second.

First: CO[C@@H]1[C@H](OP(=O)(O)OC[C@H]2O[C@@H](n3cnc4c(=O)[nH]c(N)nc43)[C@H](O)[C@@H]2O)[C@@H](COP(=O)(O)CP(=O)(O)OP(=O)(O)OC[C@H]2O[C@@H](n3c[n+](C)c4c(=O)[nH]c(N)nc43)[C@H](O)[C@@H]2CNC(C)=O)O[C@H]1n1cnc2c(N)ncnc21 [Compound 329]
Second: CO[C@@H]1[C@H](OP(=O)(O)OC[C@H]2O[C@@H](n3cnc4c(=O)[nH]c(N)nc43)[C@H](O)[C@@H]2O)[C@@H](COP(=O)(O)CP(=O)(O)OP(=O)(O)OC[C@H]2O[C@@H](n3c[n+](C)c4c(=O)[nH]c(N)nc43)[C@H](O)[C@@H]2CC(=O)N(C)C)O[C@H]1n1cnc2c(N)ncnc21 [Compound 421]
The “Final product mass obtained” value of the first is higher: 110 µg for the first, 98 µg for the second.

Compared with `CNC(=O)C[C@H]1[C@@H](O)[C@H](n2c[n+](C)c3c(=O)[nH]c(N)nc32)O[C@@H]1COP(=O)(O)OP(=O)(O)OP(=O)(O)OC[C@H]1O[C@@H](n2cnc3c(N)ncnc32)[C@H](OC)[C@@H]1OP(=O)(O)OC[C@H]1O[C@@H](n2ccc(=O)[nH]c2=O)[C@H](O)[C@@H]1O` [Compound 394], `CNC(=O)C[C@H]1[C@@H](OC)[C@H](n2c[n+](C)c3c(=O)[nH]c(N)nc32)O[C@@H]1COP(=O)(O)OP(=O)(O)OP(=O)(O)OC[C@H]1O[C@@H](n2cnc3c(N)ncnc32)[C@H](OC)[C@@H]1OP(=O)(O)OC[C@H]1O[C@@H](n2cnc3c(=O)[nH]c(N)nc32)[C@H](O)[C@@H]1O` [Compound 645] is higher in “Final product mass obtained” value: 107 µg for the first, 116 µg for the second.

Compared with `CO[C@@H]1[C@H](OP(=O)(O)OC[C@H]2O[C@@H](n3cnc4c(=O)[nH]c(N)nc43)[C@H](O)[C@@H]2O)[C@@H](COP(=O)(O)OP(=O)(O)OP(=O)(O)OP(=O)(O)OC[C@H]2O[C@@H](n3c[n+](C)c4c(=O)[nH]c(N)nc43)[C@H](O)[C@@H]2CC(=O)N(C)C)O[C@H]1n1cnc2c(N)ncnc21` [Compound 437], `CO[C@@H]1[C@H](OP(=O)(O)OC[C@H]2O[C@@H](n3cnc4c(=O)[nH]c(N)nc43)[C@H](O)[C@@H]2O)[C@@H](COP(=O)(O)OP(=O)(O)OP(=O)(O)OC[C@H]2O[C@@H](n3c[n+](C)c4c(=O)[nH]c(N)nc43)[C@H](O)[C@@H]2CNC(=O)N(C)C)O[C@H]1n1cnc2c(N)ncnc21` [Compound 639] is lower in “Final product mass obtained” value: 114 µg for the first, 94 µg for the second.

First: CO[C@@H]1[C@H](OP(=O)([O-])OC[C@H]2O[C@@H](n3cnc4c(=O)[nH]c(N)nc43)[C@H](O)[C@@H]2O)[C@@H](CSP(=O)(O)OP(=O)(O)OP(=O)(O)OC[C@H]2O[C@@H](n3c[n+](C)c4c(=O)[nH]c(N)nc43)[C@H](O)[C@@H]2CNC(C)=O)O[C@H]1n1cnc2c(N)ncnc21 [Compound 561]
Second: CNC(=O)OC[C@H]1[C@@H](O)[C@H](n2c[n+](C)c3c(=O)[nH]c(N)nc32)O[C@@H]1COP(=O)(O)OP(=O)(O)OP(=O)(O)OC[C@H]1O[C@@H](n2cnc3c(N)ncnc32)[C@H](OC)[C@@H]1OP(=O)([O-])OC[C@H]1O[C@@H](n2cnc3c(=O)[nH]c(N)nc32)[C@H](O)[C@@H]1O [Compound 631]
The “Final product mass obtained” value of the first is higher: 108 µg for the first, 105 µg for the second.

First: CO[C@@H]1[C@H](OP(=O)([O-])OC[C@H]2O[C@@H](n3cnc4c(=O)[nH]c(N)nc43)[C@H](O)[C@@H]2O)[C@@H](COP(=O)(O)OP(=O)(O)OP(=O)(O)OC[C@H]2O[C@@H](n3c[n+](C)c4c(=O)[nH]c(N)nc43)[C@H](O)[C@@H]2CN=[N+]=[N-])O[C@H]1n1cnc2c(N)ncnc21 [Compound 635]
Second: CCCCCCNC(=O)C[C@H]1[C@@H](O)[C@H](n2c[n+](C)c3c(=O)[nH]c(N)nc32)O[C@@H]1COP(=O)(O)OP(=O)(O)OP(=O)(O)OC[C@H]1O[C@@H](n2cnc3c(N)ncnc32)[C@H](OC)[C@@H]1OP(=O)([O-])OC[C@H]1O[C@@H](n2cnc3c(=O)[nH]c(N)nc32)[C@H](O)[C@@H]1O [Compound 643]
The “Final product mass obtained” value of the first is lower: 118 µg for the first, 121 µg for the second.

Compared with `COC[C@H]1[C@@H](OC)[C@H](n2c[n+](C)c3c(=O)[nH]c(N)nc32)O[C@@H]1COP(=O)(O)OP(=O)(O)OP(=O)(O)OC[C@H]1O[C@@H](n2cnc3c(N)ncnc32)[C@H](OC)[C@@H]1OP(=O)(O)OC[C@H]1O[C@@H](n2cnc3c(=O)[nH]c(N)nc32)[C@H](O)[C@@H]1O` [Compound 637], `CO[C@@H]1[C@H](CNC(C)=O)[C@@H](COP(=O)(O)OP(=O)(O)OP(=O)(O)OC[C@H]2O[C@@H](n3cnc4c(N)ncnc43)[C@H](OC)[C@@H]2OP(=O)(O)OC[C@H]2O[C@@H](n3cnc4c(=O)[nH]c(N)nc43)[C@H](O)[C@@H]2O)O[C@H]1n1c[n+](C)c2c(=O)[nH]c(N)nc21` [Compound 641] is higher in “Final product mass obtained” value: 88 µg for the first, 89 µg for the second.
